What was measured:
Type in all cases: in vivo
[1] = system: Polygonum convolvulus (POLCO); experiment: C. Herbicidal pre-emergence efficacy, POLCO; conditions: scored after about 3 weeks
Method in brief: (§1)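 Pre-emergence test: formulated compounds sprayed as aqueous suspension or emulsion with 0.5% additive at 600 l/ha onto soil covering sown seeds, at rates corresponding to 320 g/ha or less. After about 3 weeks in greenhouse, efficacy scored visually as percent versus untreated controls (100% = plants dead).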

Setaria viridis (SETVI) = experiment: A. Herbicidal pre-emergence efficacy, SETVI
Method in brief: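 Applied before emergence onto covering soil at rates of 1280 g/ha or less, using 600 L/ha spray water with 0.5% additive. Scoring: visual % efficacy after ~3 weeks, greenhouse.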

[2] = system: Triticum aestivum (TRZAS); experiment: F. Post-emergence effect on useful plants, TRZAS; conditions: useful plant
Method in brief: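 Visual efficacy rating versus untreated plants, from 0% (no effect) to 100% (plants died), made about 3 weeks after post-emergence treatment. Formulated compounds (WP or EC, 0.5% additive, 600 l/ha water) were sprayed onto greenhouse-grown crops at the one-leaf stage, 2-3 weeks after sowing.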

Lolium rigidum (LOLRI) = experiment: C. Herbicidal pre-emergence efficacy, LOLRI; conditions: 320 g/ha, scored after about 3 weeks
Method in brief: as §1

[3] = system: Amaranthus retroflexus (AMARE); experiment: B. Herbicidal post-emergence efficacy, AMARE
Method in brief: (§2)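 First, seeds were sown in sandy loam and grown 2 to 3 weeks under controlled greenhouse conditions. Next, foliage at the one-leaf stage received the formulated compound in water with 0.5% additive (600 L/ha, 1280 g/ha or less). Finally, damage was rated visually after about 3 weeks against untreated plants.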

[4] = system: Abutilon theophrasti (ABUTH); experiment: C. Herbicidal pre-emergence efficacy, ABUTH; conditions: scored after about 3 weeks
Method in brief: as §1

[5] = system: Triticum aestivum (TRZAS); experiment: D. Pre-emergence effect on useful plants, TRZAS; conditions: useful plant
Method in brief: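 Seeds sown in pots and covered with soil; WP or EC formulations sprayed on the soil surface as aqueous suspension/emulsion with 0.5% additive at 600 l/ha water. Plants grown in greenhouse; crop damage scored visually after about 3 weeks as % versus untreated controls (100% = dead, 0% = like control).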

[6] = system: Abutilon theophrasti (ABUTH); experiment: B. Herbicidal post-emergence efficacy, ABUTH; conditions: rated visually after about 3 weeks
Method in brief: as §2

Post-emergence efficacy against TRZAS in % ([2]; application rate 80 g/ha) [%] | Pre-emergence efficacy against TRZAS in % ([5]; application rate 80 g/ha) [%] | Post-emergence efficacy against TRZAS in % ([2]; application rate 320 g/ha) [%] | Pre-emergence efficacy against TRZAS in % ([5]; application rate 320 g/ha) [%] | SMILES | Pre-emergence efficacy against POLCO ([1]; 80 g/ha) [%] | Pre-emergence efficacy against POLCO ([1]; 320 g/ha) [%] | Pre-emergence efficacy against SETVI (Setaria viridis (SETVI); dosage 1280 g/ha) [%] | Pre-emergence efficacy against LOLRI (Lolium rigidum (LOLRI)) [%] | Post-emergence efficacy against AMARE ([3]; 80 g/ha) [%] | Post-emergence efficacy against AMARE ([3]; 320 g/ha) [%] | Post-emergence efficacy against AMARE ([3]; 1280 g/ha) [%] | Pre-emergence efficacy against ABUTH ([4]; 80 g/ha) [%] | Pre-emergence efficacy against ABUTH ([4]; 320 g/ha) [%] | Post-emergence efficacy against ABUTH in % ([6]; 320 g/ha) [%] | Post-emergence efficacy against ABUTH in % ([6]; 1280 g/ha) [%] | Pre-emergence efficacy against SETVI (Setaria viridis (SETVI); dosage 80 g/ha) [%] | Pre-emergence efficacy against SETVI (Setaria viridis (SETVI); dosage 320 g/ha) [%] | Post-emergence efficacy against ABUTH in % ([6]; 80 g/ha) [%]
0 | 0 | – | – | O=S(=O)(CC1CC1)Oc1ccccc1Oc1ncc(Cl)cn1 [Example I-23] | 100 | 100 | 100 | 100 | 100 | 100 | 100 | 100 | 100 | 90 | 100 | – | – | –
0 | 10 | 10 | – | CCCS(=O)(=O)Oc1ccccc1Oc1ncc(Cl)cn1 [Example I-3] | – | 100 | 100 | 90 | 90 | 100 | 100 | 100 | 100 | 90 | 100 | 100 | 100 | –
0 | 0 | 0 | – | COCCS(=O)(=O)Oc1c(F)cccc1Oc1ncc(Cl)cn1 [Example I-52] | 90 | 100 | 100 | 90 | – | 90 | 90 | 80 | 100 | – | 90 | – | 100 | –

The remaining lines, values behind:

SMILES | Post-emergence efficacy against TRZAS in % ([2]; application rate 80 g/ha) [%] | Pre-emergence efficacy against TRZAS in % ([5]; application rate 80 g/ha) [%] | Post-emergence efficacy against TRZAS in % ([2]; application rate 320 g/ha) [%] | Pre-emergence efficacy against TRZAS in % ([5]; application rate 320 g/ha) [%] | Pre-emergence efficacy against POLCO ([1]; 80 g/ha) [%] | Pre-emergence efficacy against POLCO ([1]; 320 g/ha) [%] | Pre-emergence efficacy against SETVI (Setaria viridis (SETVI); dosage 1280 g/ha) [%] | Pre-emergence efficacy against LOLRI (Lolium rigidum (LOLRI)) [%] | Post-emergence efficacy against AMARE ([3]; 80 g/ha) [%] | Post-emergence efficacy against AMARE ([3]; 320 g/ha) [%] | Post-emergence efficacy against AMARE ([3]; 1280 g/ha) [%] | Pre-emergence efficacy against ABUTH ([4]; 80 g/ha) [%] | Pre-emergence efficacy against ABUTH ([4]; 320 g/ha) [%] | Post-emergence efficacy against ABUTH in % ([6]; 320 g/ha) [%] | Post-emergence efficacy against ABUTH in % ([6]; 1280 g/ha) [%] | Pre-emergence efficacy against SETVI (Setaria viridis (SETVI); dosage 80 g/ha) [%] | Pre-emergence efficacy against SETVI (Setaria viridis (SETVI); dosage 320 g/ha) [%] | Post-emergence efficacy against ABUTH in % ([6]; 80 g/ha) [%]
C=CCCS(=O)(=O)Oc1c(F)cccc1Oc1ncc(Cl)cn1 [Example I-50] | 0 | 0 | 10 | – | 80 | 90 | 100 | 100 | 90 | 90 | 100 | – | 100 | 90 | 90 | 90 | 90 | –
O=S(=O)(CCC(F)=C(F)F)Oc1c(Cl)cccc1Oc1ncc(Cl)cn1 [Example I-73] | 0 | 0 | 20 | 20 | – | 90 | 100 | 80 | 100 | 100 | 100 | – | 90 | 100 | 100 | – | 90 | 90
N#Cc1cccc(Oc2ncc(Cl)cn2)c1OS(=O)(=O)CCCC(F)(F)F [Example I-81] | 0 | 0 | – | – | 80 | 90 | – | 90 | – | – | – | – | 100 | – | – | – | – | –
